14 molecules from ChEMBL document CHEMBL1142326, “2-Amino-N-pyrimidin-4-ylacetamides as A2A receptor antagonists: 1. Structure-activity relationships and optimization of heterocyclic substituents” (J Med Chem, 2008) can be followed below.

Molecules are shown by their SMILES. A value given as a limit tells only on which side of the number the result lay.

One test deals with T1, Adenosine receptor A1 (Homo sapiens, UniProt P30542).
T1 sequence (P30542 whole entry): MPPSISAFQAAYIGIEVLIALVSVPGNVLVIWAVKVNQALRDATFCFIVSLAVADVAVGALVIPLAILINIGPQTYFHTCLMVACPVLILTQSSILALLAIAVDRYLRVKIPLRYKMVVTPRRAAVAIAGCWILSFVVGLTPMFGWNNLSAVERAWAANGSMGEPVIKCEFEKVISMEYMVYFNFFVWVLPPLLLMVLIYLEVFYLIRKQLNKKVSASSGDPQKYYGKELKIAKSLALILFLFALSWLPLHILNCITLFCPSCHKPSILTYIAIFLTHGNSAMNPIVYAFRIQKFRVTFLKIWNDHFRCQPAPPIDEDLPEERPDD
Put plainly: Displacement of [3H]DPCPX from human adenosine A1 receptor expressed in HEK293 cells. It counts as cell-based. Background: Displacement assays read how much labelled ligand stays bound in the presence of the test substance.

The target of test [1] is T2, Adenosine receptor A2a (Homo sapiens, UniProt P29274). Kind of test: Displacement of [3H]ZM241385 from human adenosine A2A receptor expressed in HEK293 cells. It counts as cell-based.
T2 sequence (P29274 whole entry): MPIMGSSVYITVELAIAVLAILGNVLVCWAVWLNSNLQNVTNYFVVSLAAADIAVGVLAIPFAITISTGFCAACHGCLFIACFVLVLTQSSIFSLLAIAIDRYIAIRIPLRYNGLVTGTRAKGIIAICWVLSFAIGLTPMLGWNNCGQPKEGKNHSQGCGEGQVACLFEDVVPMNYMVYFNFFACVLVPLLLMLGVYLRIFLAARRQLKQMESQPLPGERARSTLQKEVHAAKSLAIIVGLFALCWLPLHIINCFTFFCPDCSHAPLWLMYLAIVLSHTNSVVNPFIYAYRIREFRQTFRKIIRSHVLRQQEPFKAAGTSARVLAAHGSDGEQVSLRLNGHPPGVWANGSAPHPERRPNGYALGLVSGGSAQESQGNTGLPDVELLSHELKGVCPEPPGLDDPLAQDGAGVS
The target in another test is Cytochrome P450 3A4 (Homo sapiens, UniProt P08684). Kind of test: Inhibition of CYP3A4. Format: ADME.
Cytochrome P450 3A4, sequence (P08684 whole entry): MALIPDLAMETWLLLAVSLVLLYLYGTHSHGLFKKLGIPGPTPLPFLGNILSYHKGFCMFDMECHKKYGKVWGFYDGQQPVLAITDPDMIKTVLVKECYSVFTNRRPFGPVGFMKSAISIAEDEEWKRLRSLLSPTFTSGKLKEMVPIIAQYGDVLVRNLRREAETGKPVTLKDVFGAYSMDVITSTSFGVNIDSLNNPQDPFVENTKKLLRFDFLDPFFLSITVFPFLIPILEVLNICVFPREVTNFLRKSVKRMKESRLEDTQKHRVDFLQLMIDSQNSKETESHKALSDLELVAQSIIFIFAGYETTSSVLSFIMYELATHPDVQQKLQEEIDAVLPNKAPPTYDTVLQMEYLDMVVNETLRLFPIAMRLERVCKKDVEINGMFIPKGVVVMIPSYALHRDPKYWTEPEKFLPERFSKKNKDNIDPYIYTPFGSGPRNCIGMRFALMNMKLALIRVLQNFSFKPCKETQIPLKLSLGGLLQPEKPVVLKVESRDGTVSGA
The target in test [2] is T2, Adenosine receptor A2a. Kind of test: Antagonist activity at human adenosine A2A receptor by cAMP assay. It counts as functional.

On to `CN1CCN(CC(=O)Nc2cc(-c3ccccn3)nc(-c3cccs3)n2)CC1`, for which the inhibition constant (Ki) on Adenosine receptor A1 is 389 nM; on Adenosine receptor A2a [1] it was 24 nM.

Regarding `Cc1cc(C)n(-c2nc(NC(=O)CN3CCN(C)CC3)cc(-c3ocnc3C)n2)n1`, the Ki is greater than 10000 nM at Adenosine receptor A1 and 190 nM on Adenosine receptor A2a [1].

Turning to `CN1CCN(CC(=O)Nc2cc(-n3cccn3)nc(-c3ccccn3)n2)CC1`, the results for the inhibition constant (Ki) on Adenosine receptor A1 and at Adenosine receptor A2a [1] were 930 nM and 53.4 nM, respectively.

`Cc1cc(C)n(-c2cc(NC(=O)CN3CCN(C)CC3)nc(-c3ccc(C)o3)n2)n1`: the Ki at Adenosine receptor A1 came to 850 nM; at Adenosine receptor A2a [1], 12 nM.

As for `Cc1ccc(-c2nc(NC(=O)CN3CCN(C)CC3)cc(-n3cccn3)n2)o1`, the inhibition constant Ki at Adenosine receptor A1 is 850 nM; at Adenosine receptor A2a [1], 135 nM.

`Cc1ccc(-c2nc(NC(=O)CN3CCN(C)CC3)cc(-n3nccc3C)n2)o1`: the results for the inhibitory constant (Ki) at Adenosine receptor A1 and on Adenosine receptor A2a [1] were 390 nM and 14 nM, respectively.

Regarding `Cc1ccc(-c2nc(NC(=O)CN3CCN(C)CC3)cc(-c3nccs3)n2)o1`, the results for the inhibitory constant (Ki) at Adenosine receptor A1 and at Adenosine receptor A2a [1] were 720 nM and 51 nM, respectively.

Turning to `Cc1cc(C)n(-c2cc(NC(=O)CN3CCN(C)CC3)nc(-c3nccs3)n2)n1`, the Ki at Adenosine receptor A1 was 2000 nM; at Adenosine receptor A2a [1] it was 9 nM. Further, at Cytochrome P450 3A4, half-maximal inhibition (IC50) was put at 13 µM.

Regarding `CN1CCN(CC(=O)Nc2cc(-n3cccn3)nc(-n3cccn3)n2)CC1`, the figures for the inhibition constant Ki on Adenosine receptor A1 and on Adenosine receptor A2a [1] were 4200 nM and 131 nM, respectively.

In the case of `Cc1cc(C)n(-c2cc(NC(=O)CN3CCN(C)CC3)nc(-c3ccccn3)n2)n1`, the inhibition constant Ki is 4400 nM on Adenosine receptor A1 and 25.5 nM on Adenosine receptor A2a [1].

Take `Cc1cc(C)n(-c2nc(NC(=O)CN3CCN(C)CC3)cc(-c3cnco3)n2)n1`: the Ki was greater than 10000 nM on Adenosine receptor A1 and 1000 nM at Adenosine receptor A2a [1].

As to `Cc1cc(C)n(-c2nc(NC(=O)CN3CCN(C)CC3)cc(-c3nccs3)n2)n1`, the Ki is 1700 nM on Adenosine receptor A1 and 27 nM on Adenosine receptor A2a [1].

Turning to `CN1CCN(CC(=O)Nc2cc(-c3nccs3)nc(-c3ccco3)n2)CC1`, at Adenosine receptor A2a [2], half-maximal inhibition (IC50) was put at 103 nM.

With `CN1CCN(CC(=O)Nc2cc(-n3cccn3)nc(-c3nccs3)n2)CC1`, the Ki was 850 nM at Adenosine receptor A1 and 17 nM at Adenosine receptor A2a [1].

Usually Ki stands for the dissociation constant of the complex between target and ligand, obtained from inhibition or displacement. A lower Ki goes with tighter binding. As a reminder, the IC50 is the point on the concentration scale where inhibition reaches its midpoint. Low values mean higher potency, high ones lower potency.
